Measurements as given in ChEMBL document CHEMBL1201862, “PubChem BioAssay data set” (2004).
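Briefly, cells in 96-well plates were exposed to five compound concentrations for 48 h, and endpoints were estimated by linear interpolation. GI50: concentration for 50% inhibition of growth.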 The source made the active and inactive calls. Rule as the data show it: active = GI50 up to about 1.1 µM and inactive = higher.

Legend:
Assay in all cases: NCI anticancer screen, dose series, 48 h
786-0 = system: 786-0
A549 = system: A549
BT-549 = system: BT-549
CAKI-1 = system: CAKI-1
HCT-116 = system: HCT-116
Hs-578T = system: Hs-578T
IGROV-1 = system: IGROV-1
KM12 = system: KM12
LOX IMVI = system: LOX IMVI
Malme-3M = system: Malme-3M
NCI-H460 = system: NCI-H460
OVCAR-3 = system: OVCAR-3
OVCAR-4 = system: OVCAR-4
OVCAR-8 = system: OVCAR-8
SF-268 = system: SF-268
SK-MEL-5 = system: SK-MEL-5
SK-OV-3 = system: SK-OV-3
SR = system: SR
SW-620 = system: SW-620
RPMI-8226 = system: RPMI-8226

SMILES	GI50 (786-0)	GI50 (A549)	GI50 (BT-549)	GI50 (CAKI-1)	GI50 (HCT-116)	GI50 (Hs-578T)	GI50 (IGROV-1)	GI50 (KM12)	GI50 (LOX IMVI)	GI50 (Malme-3M)	GI50 (NCI-H460)	GI50 (OVCAR-3)	GI50 (OVCAR-4)	GI50 (OVCAR-8)	GI50 (SF-268)	GI50 (SK-MEL-5)	GI50 (SK-OV-3)	GI50 (SR)	GI50 (SW-620)	GI50 (RPMI-8226)
O=C(CN(C(=O)OC12CC3CC(CC(C3)C1)C2)C(=O)OC12CC3CC(CC(C3)C1)C2)Oc1ccc([N+](=O)[O-])cc1	> 100 µM (inactive)	> 100 µM (inactive)	> 100 µM (inactive)	> 100 µM (inactive)	> 100 µM (inactive)	> 100 µM (inactive)	> 100 µM (inactive)	> 100 µM (inactive)	> 100 µM (inactive)	75 µM (inactive)	> 100 µM (inactive)	> 100 µM (inactive)	> 100 µM (inactive)	> 100 µM (inactive)	> 100 µM (inactive)	87.5 µM (inactive)	> 100 µM (inactive)	> 100 µM (inactive)	56.6 µM (inactive)	
Oc1c(Br)cc(CN(Cc2cc(Br)c(O)c(Br)c2)C2CCCCC2)cc1Br	> 100 µM (inactive)	> 100 µM (inactive)	> 100 µM (inactive)	> 100 µM (inactive)	> 100 µM (inactive)	> 100 µM (inactive)	> 100 µM (inactive)	> 100 µM (inactive)	> 100 µM (inactive)	> 100 µM (inactive)		> 100 µM (inactive)	> 100 µM (inactive)	> 100 µM (inactive)	> 100 µM (inactive)	> 100 µM (inactive)	> 100 µM (inactive)	> 100 µM (inactive)	> 100 µM (inactive)	> 100 µM (inactive)
O=C(c1ccc(Cl)cc1)N(C(=S)OCc1ccccn1)c1ccccc1	83.2 µM (inactive)		60.7 µM (inactive)	71.8 µM (inactive)	46.6 µM (inactive)	> 100 µM (inactive)	36.1 µM (inactive)	> 100 µM (inactive)	68.2 µM (inactive)	61.1 µM (inactive)		52.7 µM (inactive)		> 100 µM (inactive)	> 100 µM (inactive)	58.9 µM (inactive)	> 100 µM (inactive)	> 100 µM (inactive)	66.7 µM (inactive)	40.6 µM (inactive)
CC1(C)CC2(C)CC1CC2O (stereo unspecified)	> 100 µM (inactive)	> 100 µM (inactive)	> 100 µM (inactive)	> 100 µM (inactive)	> 100 µM (inactive)	> 100 µM (inactive)	> 100 µM (inactive)	> 100 µM (inactive)	> 100 µM (inactive)	> 100 µM (inactive)		> 100 µM (inactive)	> 100 µM (inactive)	> 100 µM (inactive)	> 100 µM (inactive)	> 100 µM (inactive)	> 100 µM (inactive)	> 100 µM (inactive)	> 100 µM (inactive)	> 100 µM (inactive)
C/C(=N/NC(=S)N(C)C)c1ccccc1O	6.32 µM (inactive)	7.87 µM (inactive)	10.4 µM (inactive)	25.7 µM (inactive)	3.33 µM (inactive)	> 72.4 µM (inactive)	5.98 µM (inactive)	8.85 µM (inactive)	4.86 µM (inactive)	7.26 µM (inactive)	2.26 µM (inactive)	2.97 µM (inactive)	11.3 µM (inactive)	5.22 µM (inactive)	6.07 µM (inactive)	7.67 µM (inactive)	> 44.5 µM (inactive)		9.4 µM (inactive)	> 31.8 µM (inactive)
O=c1o[nH]/c(=N/c2ccccc2)n1-c1ccccc1	> 100 µM (inactive)	> 100 µM (inactive)	> 100 µM (inactive)	> 100 µM (inactive)	> 100 µM (inactive)	> 100 µM (inactive)	> 100 µM (inactive)	> 100 µM (inactive)	> 100 µM (inactive)	> 100 µM (inactive)	> 100 µM (inactive)	> 100 µM (inactive)	> 100 µM (inactive)	> 100 µM (inactive)		> 100 µM (inactive)	> 100 µM (inactive)	> 100 µM (inactive)	> 100 µM (inactive)	
CN(NC(=O)c1ccco1)C1=NCCN1	> 100 µM (inactive)	> 100 µM (inactive)	> 100 µM (inactive)		> 100 µM (inactive)	> 100 µM (inactive)	> 100 µM (inactive)	> 100 µM (inactive)	> 100 µM (inactive)	> 100 µM (inactive)	> 100 µM (inactive)	> 100 µM (inactive)	> 100 µM (inactive)	> 100 µM (inactive)	> 100 µM (inactive)	> 100 µM (inactive)	> 100 µM (inactive)	> 100 µM (inactive)	> 100 µM (inactive)	> 100 µM (inactive)
CC1=CC(=O)c2ccccc2C1=O [MENADIONE]	14.6 µM (inactive)	18.5 µM (inactive)	12.3 µM (inactive)	16.1 µM (inactive)	2 µM (inactive)	10.7 µM (inactive)	15.7 µM (inactive)	10.7 µM (inactive)	2.04 µM (inactive)	4.76 µM (inactive)	11.5 µM (inactive)	11.1 µM (inactive)	3.87 µM (inactive)	10.1 µM (inactive)	7.52 µM (inactive)	2.18 µM (inactive)	13 µM (inactive)		2.14 µM (inactive)	1.72 µM (inactive)
O=C1C(OC(=O)c2ccccc2)=C(c2ccc(O)cc2)C(=O)C(OC(=O)c2ccccc2)=C1c1ccc(O)cc1	> 100 µM (inactive)	> 100 µM (inactive)	> 100 µM (inactive)	> 100 µM (inactive)	> 100 µM (inactive)	> 100 µM (inactive)	> 100 µM (inactive)	60.5 µM (inactive)	76.4 µM (inactive)	> 100 µM (inactive)	74.1 µM (inactive)	38.1 µM (inactive)	51.9 µM (inactive)	> 100 µM (inactive)	> 100 µM (inactive)	> 100 µM (inactive)	56.2 µM (inactive)		> 100 µM (inactive)	> 100 µM (inactive)
C/C=C(\C)C(=O)O[C@@H]1CC(C)(C)CC2C3=CCC4[C@]56CC[C@](O)(OC5)C(C)(C)C6CC[C@@]4(C)C3(C)CC[C@]21C(=O)O (stereo partly specified)	> 100 µM (inactive)	53.3 µM (inactive)	> 100 µM (inactive)	> 100 µM (inactive)	79.6 µM (inactive)	> 100 µM (inactive)	54.3 µM (inactive)	82.4 µM (inactive)	25.9 µM (inactive)	> 100 µM (inactive)	78.2 µM (inactive)	81.7 µM (inactive)	> 100 µM (inactive)	> 100 µM (inactive)	> 100 µM (inactive)	> 100 µM (inactive)	> 100 µM (inactive)		> 100 µM (inactive)	87.9 µM (inactive)
COC(=O)NC1=NNC(=O)c2ccccc2N1	> 100 µM (inactive)	> 100 µM (inactive)	> 100 µM (inactive)	> 100 µM (inactive)	> 100 µM (inactive)	> 100 µM (inactive)	> 100 µM (inactive)	> 100 µM (inactive)	> 100 µM (inactive)		> 100 µM (inactive)	> 100 µM (inactive)	> 100 µM (inactive)	> 100 µM (inactive)	> 100 µM (inactive)	> 100 µM (inactive)	> 100 µM (inactive)	> 100 µM (inactive)	> 100 µM (inactive)	> 100 µM (inactive)
CCCC[S+]([O-])CCC(N)C(=O)O (stereo unspecified)	> 100 µM (inactive)	> 100 µM (inactive)	> 100 µM (inactive)	> 100 µM (inactive)	> 100 µM (inactive)	> 100 µM (inactive)	> 100 µM (inactive)	> 100 µM (inactive)		1.94 µM (inactive)	> 100 µM (inactive)	> 100 µM (inactive)	> 100 µM (inactive)	> 100 µM (inactive)	> 100 µM (inactive)	> 100 µM (inactive)	> 100 µM (inactive)	> 100 µM (inactive)	> 100 µM (inactive)	
CC(C)=CCC(O)C1=CC(=O)c2c(O)ccc(O)c2C1=O (stereo unspecified)	0.494 µM (active)	4.82 µM (inactive)	1.58 µM (inactive)	0.407 µM (active)	1.25 µM (inactive)	2.9 µM (inactive)	1.64 µM (inactive)	4.7 µM (inactive)	1.22 µM (inactive)		1.88 µM (inactive)	1.14 µM (inactive)	1.76 µM (inactive)	1.55 µM (inactive)	2.27 µM (inactive)	0.301 µM (active)	11.7 µM (inactive)	0.15 µM (active)	0.933 µM (active)	0.23 µM (active)
COc1ccc(Nc2[nH]c(C(C)=O)c(N)c2C(=S)Nc2ccccc2)cc1	42.5 µM (inactive)	41.9 µM (inactive)	78 µM (inactive)	87.3 µM (inactive)	38.6 µM (inactive)	74 µM (inactive)	78.2 µM (inactive)	37.5 µM (inactive)	32.1 µM (inactive)	50.6 µM (inactive)	48.3 µM (inactive)	> 100 µM (inactive)	36.5 µM (inactive)	60.8 µM (inactive)	29.6 µM (inactive)	37.2 µM (inactive)	> 100 µM (inactive)	33.7 µM (inactive)	> 100 µM (inactive)	
CC(C)(C)OC(=O)N1CCC23CCCC2C(=O)CC=C13 (stereo unspecified)	> 100 µM (inactive)	> 100 µM (inactive)	> 100 µM (inactive)	> 100 µM (inactive)	72.4 µM (inactive)	> 100 µM (inactive)	> 100 µM (inactive)	> 100 µM (inactive)	> 100 µM (inactive)	> 100 µM (inactive)	> 100 µM (inactive)	> 100 µM (inactive)	> 100 µM (inactive)	> 100 µM (inactive)	> 100 µM (inactive)	> 100 µM (inactive)	> 100 µM (inactive)	> 100 µM (inactive)	> 100 µM (inactive)	
